Counter-ions that a name gives are not always drawn. A value given as a limit tells only on which side of the number the result lay.

For orientation: IC50 means the concentration that inhibits the measured activity by half.

In this test the target is recombinant human AMCase (Homo sapiens, UniProt Q9BZP6). Briefly: Human AMCase Activity Assay. The settings on record: recombinant hAMCase, 4-methylumbelliferyl chitobioside substrate, citrate buffer pH 5.2, 37° C., 60 minutes; read-out: Activity (IC50 value key). In kind it is biochemical. As to the method: Human AMCase Activity Assay
recombinant human AMCase, sequence (Q9BZP6 22-476): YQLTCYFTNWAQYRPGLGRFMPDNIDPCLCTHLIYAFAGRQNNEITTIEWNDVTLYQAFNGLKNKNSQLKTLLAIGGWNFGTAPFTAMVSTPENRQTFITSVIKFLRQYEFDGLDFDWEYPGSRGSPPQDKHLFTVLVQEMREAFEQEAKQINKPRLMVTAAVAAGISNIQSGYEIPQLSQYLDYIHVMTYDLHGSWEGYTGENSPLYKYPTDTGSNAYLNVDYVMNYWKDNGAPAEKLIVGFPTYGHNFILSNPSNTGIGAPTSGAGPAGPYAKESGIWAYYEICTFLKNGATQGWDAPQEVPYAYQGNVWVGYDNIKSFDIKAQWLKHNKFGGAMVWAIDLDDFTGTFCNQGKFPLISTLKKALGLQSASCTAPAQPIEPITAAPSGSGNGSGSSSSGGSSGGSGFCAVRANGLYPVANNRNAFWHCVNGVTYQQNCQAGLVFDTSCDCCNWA
The assay was run in the 96-well plate format, each reaction in the total volume of 100 μl. 4-Methylumbelliferyl B-D-N,N′ diacetylchitobioside hydrate was used as a substrate for the enzyme. Upon hydrolysis by AMCase, the substrate releases 4-methylumbelliferyl (4MU), when ionized in basic pH, emits fluorescence of 460 nm.
Briefly, 40 μl of a substrate was added to each well, followed by 10 μl of compound dilution and 50 μl of hAMCase recombinant enzyme solution. The reaction was carried out in citrate buffer, pH 5.2, in the dark, at 37° C. for 60 minutes with shaking.
In the case of `Nc1n[nH]c(N2CCN(C(=O)[C@H](O)Cc3ccc(Cl)cc3)CC2)n1` [Example 72, (R)-1-(4-(3-amino-1H-1,2,4-triazol-5-yl)piperazin-1-yl)-3-(4-chlorophenyl)-2-hydroxypropan-1-one], the IC50 was above 100 µM.

On to `Nc1n[nH]c(N2CCN(C(=O)C(O)Cc3ccccc3Cl)CC2)n1` (stereo not shown) [Example 73, 1-(4-(3-amino-1H-1,2,4-triazol-5-yl)piperazin-1-yl)-3-(2-chlorophenyl)-2-hydroxypropan-1-one], for which the IC50 is above 100 µM. Then `Nc1n[nH]c(N2CCN(C(=O)COc3ccc(Cl)c([N+](=O)[O-])c3)CC2)n1` [Example 74, 1-(4-(3-amino-1H-1,2,4-triazol-5-yl)piperazin-1-yl)-2-(4-chloro-3-nitrophenoxy)ethanone], with above 100 µM.

For the compound `Nc1n[nH]c(N2CCN(C(=O)[C@@H](N)Cc3ccc(Cl)cc3Cl)CC2)n1` [Example 75-1, (S)-2-amino-1-(4-(3-amino-1H-1,2,4-triazol-5-yl)piperazin-1-yl)-3-(2,4-dichlorophenyl)propan-1-one dihydrochloride], the IC50 is above 100 µM.

`Nc1n[nH]c(N2CCN(C(=O)[C@@H](N)Cc3ccccc3Cl)CC2)n1` [Example 75-2, (S)-2-amino-1-(4-(3-amino-1H-1,2,4-triazol-5-yl)piperazin-1-yl)-3-(2-chlorophenyl)propan-1-one dihydrochloride]: the IC50 was above 100 µM. Then `CC(=O)NC(CC(=O)N1CCN(c2nc(N)n[nH]2)CC1)c1ccc(F)cc1` (stereo not shown) [Example 76, N-(3-(4-(3-amino-1H-1,2,4-triazol-5-yl)piperazin-1-yl)-1-(4-fluorophenyl)-3-oxopropyl)acetamide], with above 100 µM; and `Nc1n[nH]c(N2CCN(CCO)CC2)n1` [Example 77, 2-(4-(3-amino-1H-1,2,4-triazol-5-yl)piperazin-1-yl)ethanol], with above 100 µM; and `Nc1n[nH]c(N2CCN(CCOc3ccccc3)CC2)n1` [Example 78, 5-(4-(2-phenoxyethyl)piperazin-1-yl)-1H-1,2,4-triazol-3-amine], with above 100 µM.

In the case of `Nc1n[nH]c(N2CCN(CCOc3ccccc3Cl)CC2)n1` [Example 79, 5-(4-(2-(2-chlorophenoxy)ethyl)piperazin-1-yl)-1H-1,2,4-triazol-3-amine], the IC50 is 10 to 100 µM. Consider `Nc1n[nH]c(N2CCN(CCOCc3ccccc3)CC2)n1` [Example 80, 5-(4-(2-(benzyloxy)ethyl)piperazin-1-yl)-1H-1,2,4-triazol-3-amine], for which the IC50 is above 100 µM. As to `COc1ccc(OCCN2CCN(c3nc(N)n[nH]3)CC2)cc1` [Example 81, 5-(4-(2-(4-methoxyphenoxy)ethyl)piperazin-1-yl)-1H-1,2,4-triazol-3-amine], the IC50 fell in the range of 10 to 100 µM. With `Nc1n[nH]c(N2CCN(CCOc3ccc4[nH]ccc4c3)CC2)n1` [Example 82, 5-(4-(2-((1H-indol-5-yl)oxy)ethyl)piperazin-1-yl)-1H-1,2,4-triazol-3-amine], the half-maximal inhibitory concentration (IC50) was above 100 µM.

On to `Nc1n[nH]c(N2CCN(CCOc3ccccc3-c3ccccc3)CC2)n1` [Example 83, 5-(4-(2-([1,1′-biphenyl]-2-yloxy)ethyl)piperazin-1-yl)-1H-1,2,4-triazol-3-amine], for which the IC50 fell in the range of 10 to 100 µM. As to `CC(C)c1ccccc1OCCN1CCN(c2nc(N)n[nH]2)CC1` [Example 84, 5-(4-(2-(2-isopropylphenoxy)ethyl)piperazin-1-yl)-1H-1,2,4-triazol-3-amine], the IC50 was 10 to 100 µM. Then `Nc1n[nH]c(N2CCN(CCOc3ccccc3F)CC2)n1` [Example 85, 5-(4-(2-(2-fluorophenoxy)ethyl)piperazin-1-yl)-1H-1,2,4-triazol-3-amine], with 10 to 100 µM. Take `Nc1n[nH]c(N2CCN(CCOc3cccc(Cl)c3)CC2)n1` [Example 86, 5-(4-(2-(3-chlorophenoxy)ethyl)piperazin-1-yl)-1H-1,2,4-triazol-3-amine]: the IC50 was 10 to 100 µM. Consider `Cc1cccc(Cl)c1OCCN1CCN(c2nc(N)n[nH]2)CC1` [Example 87, 5-(4-(2-(2-chloro-6-methylphenoxy)ethyl)piperazin-1-yl)-1H-1,2,4-triazol-3-amine], for which the IC50 was 10 to 100 µM. As for `Nc1n[nH]c(N2CCC(NCCc3ccc(Cl)cc3)CC2)n1` [Example 88, 1-(3-amino-1H-1,2,4-triazol-5-yl)-N-(4-chlorophenethyl)piperidin-4-amine], the IC50 is 1 to 10 µM.

Take `C[C@H](CN1CCN(c2nc(N)n[nH]2)CC1)Oc1ccc(Br)cc1` [Example 90, (R)-5-(4-(2-(4-bromophenoxy)propyl)piperazin-1-yl)-1H-1,2,4-triazol-3-amine]: the IC50 was in the range of 0.1 to 1 µM. Consider `CN(Cc1ccc(Cl)cc1)C(=O)C1(C)CCN(c2nc(N)n[nH]2)CC1` [Example 91, 1-(3-amino-1H-1,2,4-triazol-5-yl)-N-(4-chlorobenzyl)-N,4-dimethyl piperidine-4-carboxamide], for which the concentration for half-maximal inhibition (IC50) was above 100 µM. To `CC(C)(C)CCN(CCc1ccc(Cl)cc1)C1CCN(c2nc(N)n[nH]2)CC1` [Example 93, 1-(3-amino-1H-1,2,4-triazol-5-yl)-N-(4-chlorophenethyl)-N-(3,3-dimethylbutyl) piperidin-4-amine] belongs below 0.1 µM. As to `CC(C)(C)CN(CCc1ccc(Cl)cc1)C1CCN(c2nc(N)n[nH]2)CC1` [Example 94, 1-(3-amino-1H-1,2,4-triazol-5-yl)-N-(4-chlorophenethyl)-N-neopentyl-piperidin-4-amine dihydrochloride], the IC50 was below 0.1 µM. With `Nc1n[nH]c(N2CCC(N(CCc3ccc(Br)cc3)Cc3ccccc3Cl)CC2)n1` [Example 98, 1-(3-amino-1H-1,2,4-triazol-5-yl)-N-(4-bromophenethyl)-N-(2-chlorobenzyl) piperidin-4-amine], the IC50 was below 0.1 µM. Then `Nc1n[nH]c(N2CCC(N(CCc3ccc(Cl)cc3)Cc3cccc(CO)c3)CC2)n1` [Example 100, (3-(((1-(3-amino-1H-1,2,4-triazol-5-yl)piperidin-4-yl)(4-chlorophenethyl)amino)methyl)phenyl)methanol], with below 0.1 µM; and `Cc1ccc(CN(CCc2ccc(Cl)cc2)C2CCN(c3nc(N)n[nH]3)CC2)cc1` [Example 102, 1-(3-amino-1H-1,2,4-triazol-5-yl)-N-(4-chlorophenethyl)-N-(4-methylbenzyl) piperidin-4-amine], with below 0.1 µM. In the case of `C[C@@H](c1ccccc1)N(CCc1ccc(Cl)cc1)C1CCN(c2nc(N)n[nH]2)CC1` [Example 103, (S)-1-(3-amino-1H-1,2,4-triazol-5-yl)-N-(4-chlorophenethyl)-N-(1-phenylethyl) piperidin-4-amine], the IC50 was 0.1 to 1 µM. In the case of `Nc1n[nH]c(N2CCC(N(CCc3ccc(Cl)cc3)Cc3ccc(C(F)(F)F)cc3)CC2)n1` [Example 104, 1-(3-amino-1H-1,2,4-triazol-5-yl)-N-(4-chlorophenethyl)-N-(4-(trifluoromethyl)benzyl)piperidin-4-amine], the IC50 was below 0.1 µM. As for `Nc1n[nH]c(N2CCC(N(CCc3ccc(Br)cc3)Cc3cccc4ccncc34)CC2)n1` [Example 105, 1-(3-amino-1H-1,2,4-triazol-5-yl)-N-(4-bromophenethyl)-N-(isoquinolin-8-ylmethyl) piperidin-4-amine], the IC50 was below 0.1 µM. In the case of `Nc1n[nH]c(N2CCC(N(CCc3ccc(Cl)cc3)[C@@H](CO)c3ccccc3)CC2)n1` [Example 107, (R)-2-((1-(3-amino-1H-1,2,4-triazol-5-yl)piperidin-4-yl)(4-chlorophenethyl)amino)-2-phenylethan-1-ol], the IC50 lay within 0.1 to 1 µM. To `Nc1n[nH]c(N2CCC(N(CCc3ccc(Cl)cc3)Cc3ccncc3)CC2)n1` [Example 108, 1-(3-amino-1H-1,2,4-triazol-5-yl)-N-(4-chlorophenethyl)-N-(pyridin-4-ylmethyl) piperidin-4-amine] belongs below 0.1 µM; to `COC[C@@H](c1ccccc1)N(CCc1ccc(Cl)cc1)C1CCN(c2nc(N)n[nH]2)CC1` [Example 109], 10 to 100 µM; to `Nc1nc(N2CCC(N(CCc3ccc(Cl)cc3)Cc3cccc(Cl)c3)CC2)n[nH]1` [Example 110, 1-(3-amino-1H-1,2,4-triazol-5-yl)-N-(3-chlorobenzyl)-N-(4-chlorophenethyl) piperidin-4-amine dihydrochloride], below 0.1 µM. Take `Nc1n[nH]c(N2CCC(N(CCc3ccc(Cl)cc3)Cc3ccc(-c4ccccc4)cc3)CC2)n1` [Example 111, N-([1,1′-biphenyl]-4-ylmethyl)-1-(3-amino-1H-1,2,4-triazol-5-yl)-N-(4-chlorophenethyl) piperidin-4-amine]: the IC50 is below 0.1 µM.

For `Nc1n[nH]c(N2CCC(N(CCc3ccc(Cl)cc3)Cc3ccc4ccccc4c3)CC2)n1` [Example 112, 1-(3-amino-1H-1,2,4-triazol-5-yl)-N-(4-chlorophenethyl)-N-(naphthalen-2-ylmethyl) piperidin-4-amine], the IC50 was below 0.1 µM.

As for `Nc1n[nH]c(N2CCC(N(CCc3ccc(Cl)cc3)Cc3ccccc3C(F)(F)F)CC2)n1` [Example 113, 1-(3-amino-1H-1,2,4-triazol-5-yl)-N-(4-chlorophenethyl)-N-(2-(trifluoromethyl)benzyl)piperidin-4-amine], the IC50 was below 0.1 µM. For the compound `Nc1n[nH]c(N2CCC(N(CCc3ccc(Cl)cc3)Cc3ccccc3-c3ccccc3)CC2)n1` [Example 114, N-([1,1′-biphenyl]-2-ylmethyl)-1-(3-amino-1H-1,2,4-triazol-5-yl)-N-(4-chlorophenethyl) piperidin-4-amine], the IC50 is below 0.1 µM.

Regarding `Nc1n[nH]c(N2CCC(N(CCc3ccc(Cl)cc3)Cc3ccc(-c4ccn[nH]4)cc3)CC2)n1` [Example 115, N-(4-(1H-pyrazol-5-yl)benzyl)-1-(3-amino-1H-1,2,4-triazol-5-yl)-N-(4-chlorophenethyl) piperidin-4-amine dihydrochloride], the IC50 was below 0.1 µM.
